Assay results from US10517861B2, “Biomarkers for predicting and assessing responsiveness of endometrial cancer subjects to lenvatinib compounds” (Eisai R&D Management Co., Ltd., priority 2013, dated 2019).

Key:
[1] = tested on: patients with advanced or recurrent endometrial cancer (EC); assay: Phase II study of E7080 in patients with advanced or recurrent endometrial cancer: tumor response (ORR) and survival (PFS, OS); assay type: in vivo, human
Method: Purpose: Angiogenesis is regulated by signaling through multiple growth factor receptors, such as VEGF receptor and FGF receptor. VEGF receptor signaling is also associated with immune cell function. E7080 is an oral angiogenesis inhibitor targeting multiple receptor tyrosine kinase; VEGFR1-3, FGFR1-4, RET, KIT, and PDGFRβ. A phase II study was performed in patients with advanced or recurrent endometrial cancer (EC) following 1 or 2 prior platinum-based treatments (Tx). The importance of angiogenesis in EC highlights the need to understand clinical mechanisms of escape from anti-angiogenic therapy. This clinical biomarker analysis was conducted to identify predictive markers of clinical benefit in EC patients upon E7080 treatment. Circulating cytokine and angiogenic factors (CAFs) can be measured in blood samples using ELISA and multiplex assay platforms. The CAFs examined in this study are listed below in Table 2. Numbers in parenthesis indicate bead region for each analyte.
(§1) The purpose of this analysis was to measure cytokine, chemokine and angiogenic factors in blood samples, such as plasma and serum, obtained from patients in clinical trials at both pre- and post-treatment with E7080 and to identify blood biomarkers which can be used to predict whether patients will respond to treatment with E7080. For these analyses, the following criteria of response were employed, namely:
(a) Tumor response: objective response rate (ORR) and % of maximum tumor shrinkage (MTS); and
(b) Survival Benefits: progression free survival (PFS)/overall survival (OS).
Materials and Methods: Patients who had metastatic/unresectable endometrial cancer after 1 or 2 prior platinum-based treatments received lenvatinib until disease progression or development of unmanageable toxicities. Patients received E7080 at a starting dose of 24 mg orally once daily in 28 day cycles. 133 patients were treated and evaluated for efficacy and molecular correlative analysis. This study was a part of the Phase 2 multicenter study of lenvatinib (ClinicalTrial.gov Identifier: NCT01111461). Baseline and post-treatment plasma samples were collected for molecular analyses. Plasma samples were collected at Cycle 1 Day 1 (pre-treatment) and Cycle 2 Day 1 (i.e., day […] post-treatment). Six mL of intravenous blood was drawn into EDTA vacutainer tubes. The tubes were gently inverted 6-8 times and then centrifuged at 3000 RPM for 10 minutes to separate the plasma from the red cell layer. Plasma was collected from the tube and dispensed into a 3.5 mL cryovial using a transfer pipette, and then stored immediately at −20° C. The plasma samples were shipped on dry ice and then ultimately transferred to −80° C. storage. Plasma samples from 122 patients were used for blood biomarker analysis. Serum from Cycle 1 day 1 (baseline), and cycle 2 day 1 were used in this analysis. The association of progression free survival (PFS) and overall survival (OS) were analyzed. Plasma samples were tested in batch format where all timepoints from the same subject were assayed on the same day. On the day of assay, samples were removed from −80° C. and allowed to thaw and reach room temperature. The plasma samples were tested in a panel of ELISA and multiplex kit as per the manufacturer's instructions. The ELISA plates were measured using a Molecular Devices UVmax kinetic microplate reader with SoftMax Pro 5.2 software. The multiplex assays were performed using the Bio-Rad Bio-Plex system with Bio-Plex Manager 4.1 software. Final protein concentrations (pg/mL) were calculated from the standard curve for each assay. Depending on the assay, plasma samples may have been diluted in assay buffer prior to testing. In these cases, protein concentrations were multiplied by the dilution factor.
A cut-off value of Ang-2 was used to test if patients with baseline Ang-2 levels have better clinical outcomes, such as ORR, PFS, and OS. […]

[2] = tested on: cytokine, chemokine and angiogenic factors (CAFs); assay: Plasma cytokine, chemokine and angiogenic factor (CAF) levels pre- and post-treatment with E7080 (ELISA and multiplex); assay type: in vivo, human; details: cycle 2 day 1 vs cycle 1 day 1 (baseline), 122 patients
Source text: as §1
Materials and Methods: Patients who had metastatic/unresectable endometrial cancer after 1 or 2 prior platinum-based treatments received lenvatinib until disease progression or development of unmanageable toxicities. Patients received E7080 at a starting dose of 24 mg orally once daily in 28 day cycles. 133 patients were treated and evaluated for efficacy and molecular correlative analysis. This study was a part of the Phase 2 multicenter study of lenvatinib (ClinicalTrial.gov Identifier: NCT01111461). Baseline and post-treatment plasma samples were collected for molecular analyses. […] The association of progression free survival (PFS) and overall survival (OS) were analyzed. […] The ELISA plates were measured using a Molecular Devices UVmax kinetic microplate reader with SoftMax Pro 5.2 software. […] Final protein concentrations (pg/mL) were calculated from the standard curve for each assay. […]

[3] = sub-group with high baseline Ang-2 (>2082 pg/ml), 98 patients
[4] = sub-group with low baseline Ang-2 (<2082 pg/ml), 24 patients
[5] = without stratification based on Ang-2 levels

SMILES: COc1cc2nccc(Oc3ccc(NC(=O)NC4CC4)c(Cl)c3)c2cc1C(N)=O [E7080, 4-(3-chloro-4-(cyclopropylaminocarbonyl)aminophenoxy)-7-methoxy-6-quinolinecarboxamide]
- Progression-Free Survival (months) Median ([1]; Full Set Analysis (N = 133)): 5.4 months
- Objective Response (CR + PR) ([1]; Full Set Analysis (N = 133), 24 mg orally once daily): 21.8%
- Objective Response (CR + PR) ([1]; High Ang-2 ≥2082.51 (N = 98)): 17.8%
- Overall Survival (months) Median ([1]; High Ang-2 ≥2082.51 (N = 98)): 8.9 months
- Progression-Free Survival (months) Median ([1]; High Ang-2 ≥2082.51 (N = 98)): 3.7 months
- Objective Response (CR + PR) ([1]; Low Ang-2 <2082.51 (N = 24)): 60.9%
- Progression-Free Survival (months) Median ([1]; Low Ang-2 <2082.51 (N = 24)): 9.5 months
- Median PFS ([1]; baseline ANG2(90), 0-25% subgroup): 225 days
- mOS (day) in each quartile ([1]; baseline ANG2(90), 1st (low) quartile): 541 days
- mOS (day) in each quartile ([1]; baseline ANG2(90), 2nd quartile): 353 days
- mOS (day) in each quartile ([1]; baseline ANG2(90), 3rd quartile): 256 days
- mOS (day) in each quartile ([1]; baseline ANG2(90), 4th (high) quartile): 260 days
- Median PFS ([1]; baseline ANG2(90), 25-50% subgroup): 167 days
- Median PFS ([1]; baseline ANG2(90), 50-75% subgroup): 145 days
- Median PFS ([1]; baseline ANG2(90), 75-100% subgroup): 77 days
- Median PFS ([1]; baseline Ang-2, 0-25% subgroup): 284 days
- mOS (day) in each quartile ([1]; baseline Ang-2, 1st (low) quartile): 541 days
- mOS (day) in each quartile ([1]; baseline Ang-2, 2nd quartile): 289 days
- mOS (day) in each quartile ([1]; baseline Ang-2, 3rd quartile): 268 days
- mOS (day) in each quartile ([1]; baseline Ang-2, 4th (high) quartile): 173 days
- Median PFS ([1]; baseline Ang-2, 25-50% subgroup): 167 days
- Median PFS ([1]; baseline Ang-2, 50-75% subgroup): 112 days
- Median PFS ([1]; baseline Ang-2, 75-100% subgroup): 77 days
- Median PFS ([1]; baseline HGF(86), 0-25% subgroup): 225 days
- mOS (day) in each quartile ([1]; baseline HGF(86), 1st (low) quartile): 567 days
- mOS (day) in each quartile ([1]; baseline HGF(86), 2nd quartile): 452 days
- mOS (day) in each quartile ([1]; baseline HGF(86), 3rd quartile): 273 days
- mOS (day) in each quartile ([1]; baseline HGF(86), 4th (high) quartile): 253 days
- Median PFS ([1]; baseline HGF(86), 25-50% subgroup): 205 days
- Median PFS ([1]; baseline HGF(86), 50-75% subgroup): 145 days
- Median PFS ([1]; baseline HGF(86), 75-100% subgroup): 109 days
- Median PFS ([1]; baseline IL-8(40), 0-25% subgroup): 281 days
- mOS (day) in each quartile ([1]; baseline IL-8(40), 2nd quartile): 315 days
- mOS (day) in each quartile ([1]; baseline IL-8(40), 3rd quartile): 340 days
- mOS (day) in each quartile ([1]; baseline IL-8(40), 4th (high) quartile): 127 days
- Median PFS ([1]; baseline IL-8(40), 25-50% subgroup): 222 days
- Median PFS ([1]; baseline IL-8(40), 50-75% subgroup): 145 days
- Median PFS ([1]; baseline IL-8(40), 75-100% subgroup): 71 days
- Median PFS ([1]; baseline IP-10(56), 0-25% subgroup): 167 days
- Median PFS ([1]; baseline IP-10(56), 25-50% subgroup): 174 days
- Median PFS ([1]; baseline IP-10(56), 50-75% subgroup): 220 days
- Median PFS ([1]; baseline IP-10(56), 75-100% subgroup): 77 days
- Median PFS ([1]; baseline MCP-1(58), 0-25% subgroup): 227 days
- mOS (day) in each quartile ([1]; baseline MCP-1(58), 1st (low) quartile): 463 days
- mOS (day) in each quartile ([1]; baseline MCP-1(58), 2nd quartile): 393 days
- mOS (day) in each quartile ([1]; baseline MCP-1(58), 3rd quartile): 340 days
- mOS (day) in each quartile ([1]; baseline MCP-1(58), 4th (high) quartile): 192 days
- Median PFS ([1]; baseline MCP-1(58), 25-50% subgroup): 155 days
- Median PFS ([1]; baseline MCP-1(58), 50-75% subgroup): 167 days
- Median PFS ([1]; baseline MCP-1(58), 75-100% subgroup): 111 days
- mOS (day) in each quartile ([1]; baseline MIP-1a(64), 2nd quartile): 293 days
- mOS (day) in each quartile ([1]; baseline MIP-1a(64), 3rd quartile): 353 days
- mOS (day) in each quartile ([1]; baseline MIP-1a(64), 4th (high) quartile): 264 days
- Median PFS ([1]; baseline MIP-la(64), 0-25% subgroup): 210 days
- Median PFS ([1]; baseline MIP-la(64), 25-50% subgroup): 155 days
- Median PFS ([1]; baseline MIP-la(64), 50-75% subgroup): 117 days
- Median PFS ([1]; baseline MIP-la(64), 75-100% subgroup): 166 days
- Median PFS ([1]; baseline PGF(91), 0-25% subgroup): 170 days
- mOS (day) in each quartile ([1]; baseline PGF(91), 2nd quartile): 350 days
- mOS (day) in each quartile ([1]; baseline PGF(91), 3rd quartile): 393 days
- mOS (day) in each quartile ([1]; baseline PGF(91), 4th (high) quartile): 173 days
- Median PFS ([1]; baseline PGF(91), 25-50% subgroup): 174 days
- Median PFS ([1]; baseline PGF(91), 50-75% subgroup): 218 days
- Median PFS ([1]; baseline PGF(91), 75-100% subgroup): 77 days
- Median PFS ([1]; baseline TNFa(80), 0-25% subgroup): 282 days
- mOS (day) in each quartile ([1]; baseline TNFa(80), 1st (low) quartile): 654 days
- mOS (day) in each quartile ([1]; baseline TNFa(80), 2nd quartile): 353 days
- mOS (day) in each quartile ([1]; baseline TNFa(80), 3rd quartile): 393 days
- mOS (day) in each quartile ([1]; baseline TNFa(80), 4th (high) quartile): 218 days
- Median PFS ([1]; baseline TNFa(80), 25-50% subgroup): 117 days
- Median PFS ([1]; baseline TNFa(80), 50-75% subgroup): 166 days
- Median PFS ([1]; baseline TNFa(80), 75-100% subgroup): 112 days
- Median PFS ([1]; baseline Tie-2, 0-25% subgroup): 273 days
- mOS (day) in each quartile ([1]; baseline Tie-2, 1st (low) quartile): 541 days
- mOS (day) in each quartile ([1]; baseline Tie-2, 2nd quartile): 282 days
- mOS (day) in each quartile ([1]; baseline Tie-2, 3rd quartile): 291 days
- mOS (day) in each quartile ([1]; baseline Tie-2, 4th (high) quartile): 192 days
- Median PFS ([1]; baseline Tie-2, 25-50% subgroup): 165 days
- Median PFS ([1]; baseline Tie-2, 50-75% subgroup): 155 days
- Median PFS ([1]; baseline Tie-2, 75-100% subgroup): 112 days
- Median PFS ([1]; baseline VEGFA(100), 0-25% subgroup): 158 days
- mOS (day) in each quartile ([1]; baseline VEGFA(100), 1st (low) quartile): 350 days
- mOS (day) in each quartile ([1]; baseline VEGFA(100), 2nd quartile): 541 days
- mOS (day) in each quartile ([1]; baseline VEGFA(100), 3rd quartile): 365 days
- mOS (day) in each quartile ([1]; baseline VEGFA(100), 4th (high) quartile): 260 days
- Median PFS ([1]; baseline VEGFA(100), 25-50% subgroup): 205 days
- Median PFS ([1]; baseline VEGFA(100), 50-75% subgroup): 165 days
- Median PFS ([1]; baseline VEGFA(100), 75-100% subgroup): 83 days
- Median PFS ([1]; baseline sIL-2Ra(76), 0-25% subgroup): 210 days
- mOS (day) in each quartile ([1]; baseline sIL-2Ra(76), 1st (low) quartile): 562 days
- mOS (day) in each quartile ([1]; baseline sIL-2Ra(76), 2nd quartile): 295 days
- mOS (day) in each quartile ([1]; baseline sIL-2Ra(76), 3rd quartile): 387 days
- mOS (day) in each quartile ([1]; baseline sIL-2Ra(76), 4th (high) quartile): 161 days
- Median PFS ([1]; baseline sIL-2Ra(76), 25-50% subgroup): 161 days
- Median PFS ([1]; baseline sIL-2Ra(76), 50-75% subgroup): 177 days
- Median PFS ([1]; baseline sIL-2Ra(76), 75-100% subgroup): 72.5 days
- ORR ([1]; sub-group with high baseline Ang-2 (>2082 pg/ml)): 18%
- mean OS [1, 3]: 8.9 months
- mean PFS [1, 3]: 3.7 months
- ORR ([1]; sub-group with low baseline Ang-2 (<2082 pg/ml)): 61%
- mean OS [1, 4]: 23 months
- mean PFS [1, 4]: 9.5 months
- ORR [1, 5]: 21.1%
- mOS [1, 5]: 10.6 months
- mPFS [1, 5]: 5.4 months
- changes in levels of CAFs at post-treatment compared to pre-treatment [2]: Significant changes in levels of 19 CAFs among 50 CAFs tested
